From US6737383B1, “Herbicidal oxadiazolidines” (priority 1999, dated 2004)

Columns and labels:
morningglory = test: Test B pre/postemergence morningglory; type: in vivo, Ipomoea hederacea
Procedure, shortened: (§1)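 Response is a visual 0-to-10 score relative to untreated plants, where 0 means no effect and 10 means complete control, taken twelve to sixteen days after application. Treatments went onto soil at planting and onto foliage of 1- to 4-leaf plants, using a surfactant-containing non-phytotoxic solvent.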

pigweed = test: Test B pre/postemergence pigweed; type: in vivo, Amaranthus retroflexus
Procedure, shortened: as §1

wild oat = test: Test B pre/postemergence wild oat; type: in vivo, Avena fatua
Procedure, shortened: as §1

[1] = Postemergence, Rate 250 g/ha, scale 0 to 10
[2] = Postemergence, Rate 500 g/ha, scale of 0 to 10 where 0 is no effect and 10 is complete control
[3] = Preemergence, Rate 62 g/ha, scale 0 to 10 (0 no effect, 10 complete control)
[4] = Preemergence, Rate 125 g/ha, scale of 0 to 10 where 0 is no effect and 10 is complete control
[5] = Preemergence, Rate 250 g/ha, scale 0 to 10, 0 is no effect, 10 is complete control
[6] = Preemergence, Rate 500 g/ha, scale 0 to 10, 0 is no effect, 10 is complete control
[7] = Rate 125 g/ha, Postemergence, scale 0 to 10, 0 is no effect, 10 is complete control
[8] = Postemergence, Rate 125 g/ha, scale of 0 to 10 where 0 is no effect and 10 is complete control
[9] = Preemergence, Rate 250 g/ha, scale 0 (no effect) to 10 (complete control)
[10] = Rate 62 g/ha, Preemergence, scale 0 to 10
[11] = Rate 250 g/ha, Postemergence, scale 0 to 10, 0 is no effect, 10 is complete control
[12] = Rate 500 g/ha, Postemergence, scale 0 to 10, 0 is no effect, 10 is complete control
[13] = Rate 500 g/ha, Preemergence, scale 0 to 10 (0 no effect, 10 complete control)
[14] = Postemergence, Rate 62 g/ha, scale 0 to 10, 0 is no effect, 10 is complete control
[15] = Postemergence, Rate 250 g/ha, scale 0 to 10, 0 no effect, 10 complete control
[16] = Postemergence, Rate 1000 g/ha, scale 0 to 10 (0 no effect, 10 complete control)
[17] = Preemergence, Rate 125 g/ha, scale 0 to 10 (0 no effect, 10 complete control)
[18] = Preemergence, Rate 250 g/ha, scale of 0 to 10 where 0 is no effect and 10 is complete control
[19] = Preemergence, Rate 500 g/ha, scale 0 (no effect) to 10 (complete control)
[20] = Rate 125 g/ha, Postemergence, scale 0 to 10, 0 no effect, 10 complete control
[21] = Rate 500 g/ha, Postemergence, 0 to 10 scale (0 no effect, 10 complete control)
[22] = Rate 1000 g/ha, Preemergence, scale 0 to 10 (0 no effect, 10 complete control)
[23] = Preemergence, Rate 62 g/ha, scale of 0 to 10 where 0 is no effect and 10 is complete control
[24] = Rate 62 g/ha, Postemergence, scale 0 to 10 (0 no effect, 10 complete control)

CC(C)N(C(=O)n1oc(=O)n(C[Si](C)(C)c2ccccc2)c1=O)c1ccc(Cl)cc1 [Compound 424]
Morningglory plant response rating (morningglory; [1]): 0
Morningglory plant response rating (morningglory; [2]): 1
Plant response rating, Morningglory (morningglory; [3]): 0
Plant response rating, Morningglory (morningglory; [4]): 0
Morningglory plant response rating (morningglory; [5]): 0
Morningglory plant response rating (morningglory; [6]): 0
Morningglory plant response rating (morningglory; [7]): 0
Redroot pigweed plant response rating (pigweed; [1]): 0
Redroot pigweed plant response rating (pigweed; [2]): 0
Plant response rating, Redroot pigweed (pigweed; [3]): 0
Plant response rating, Redroot pigweed (pigweed; [4]): 0
Redroot pigweed plant response rating (pigweed; [5]): 0
Redroot pigweed plant response rating (pigweed; [6]): 0
Redroot pigweed plant response rating (pigweed; [7]): 0
Wild oats plant response rating (wild oat; [1]): 0
Wild oats plant response rating (wild oat; [2]): 0
Plant response rating, Wild oats (wild oat; [3]): 0
Plant response rating, Wild oats (wild oat; [4]): 0
Wild oats plant response rating (wild oat; [5]): 0
Wild oats plant response rating (wild oat; [6]): 0
Wild oats plant response rating (wild oat; [7]): 0

CC(C)N(C(=O)n1oc(=O)n(CCN(C)C(=O)c2ccccc2)c1=O)c1ccc(F)cc1 [Compound 741]
Morningglory plant response rating (morningglory; [8]): 1
Plant response rating, Morningglory (morningglory; [4]): 0
Morningglory plant response rating (morningglory; [9]): 0
Morningglory plant response rating (morningglory; [10]): 0
Morningglory plant response rating (morningglory; [11]): 5
Morningglory plant response rating (morningglory; [12]): 3
Morningglory plant response rating (morningglory; [13]): 0
Plant response rating, Redroot pigweed (pigweed; [14]): 3
Redroot pigweed plant response rating (pigweed; [8]): 7
Plant response rating, Redroot pigweed (pigweed; [4]): 0
Redroot pigweed plant response rating (pigweed; [9]): 0
Redroot pigweed plant response rating (pigweed; [10]): 0
Redroot pigweed plant response rating (pigweed; [11]): 7
Redroot pigweed plant response rating (pigweed; [12]): 7
Redroot pigweed plant response rating (pigweed; [13]): 7
Plant response rating, Wild oats (wild oat; [14]): 0
Wild oats plant response rating (wild oat; [8]): 0
Plant response rating, Wild oats (wild oat; [4]): 0
Wild oats plant response rating (wild oat; [9]): 0
Wild oats plant response rating (wild oat; [10]): 0
Wild oats plant response rating (wild oat; [11]): 3
Wild oats plant response rating (wild oat; [13]): 7

CCN(CC)C(=O)n1oc(=O)n(-c2c(C)cccc2C)c1=O [Compound 2]
Morningglory plant response rating (morningglory; [15]): 0
Morningglory plant response rating (morningglory; [16]): 5
Plant response rating, Morningglory (morningglory; [17]): 0
Plant response rating, Morningglory (morningglory; [18]): 0
Morningglory plant response rating (morningglory; [19]): 0
Morningglory plant response rating (morningglory; [20]): 0
Morningglory plant response rating (morningglory; [21]): 0
Plant response rating, Morningglory (morningglory; [22]): 0
Redroot pigweed plant response rating (pigweed; [15]): 0
Redroot pigweed plant response rating (pigweed; [16]): 0
Plant response rating, Redroot pigweed (pigweed; [17]): 0
Plant response rating, Redroot pigweed (pigweed; [18]): 0
Redroot pigweed plant response rating (pigweed; [19]): 0
Redroot pigweed plant response rating (pigweed; [20]): 0
Redroot pigweed plant response rating (pigweed; [21]): 0
Plant response rating, Redroot pigweed (pigweed; [22]): 0
Wild oats plant response rating (wild oat; [15]): 0
Wild oats plant response rating (wild oat; [16]): 0
Plant response rating, Wild oats (wild oat; [17]): 0
Plant response rating, Wild oats (wild oat; [18]): 0
Wild oats plant response rating (wild oat; [19]): 0
Wild oats plant response rating (wild oat; [20]): 0
Plant response rating, Wild oats (wild oat; [22]): 4

CC(C)N(C(=O)n1oc(=O)n(C(C)C(=O)N(C)C)c1=O)c1ccc(F)cc1 (stereo not drawn) [Compound 478]
Morningglory plant response rating (morningglory; [1]): 7
Plant response rating, Morningglory (morningglory; [23]): 0
Plant response rating, Morningglory (morningglory; [4]): 0
Morningglory plant response rating (morningglory; [5]): 1
Morningglory plant response rating (morningglory; [6]): 2
Morningglory plant response rating (morningglory; [24]): 3
Morningglory plant response rating (morningglory; [7]): 3
Redroot pigweed plant response rating (pigweed; [1]): 3
Plant response rating, Redroot pigweed (pigweed; [23]): 8
Plant response rating, Redroot pigweed (pigweed; [4]): 8
Redroot pigweed plant response rating (pigweed; [5]): 9
Redroot pigweed plant response rating (pigweed; [6]): 10
Redroot pigweed plant response rating (pigweed; [24]): 1
Redroot pigweed plant response rating (pigweed; [7]): 2
Wild oats plant response rating (wild oat; [1]): 0
Plant response rating, Wild oats (wild oat; [23]): 2
Plant response rating, Wild oats (wild oat; [4]): 7
Wild oats plant response rating (wild oat; [5]): 9
Wild oats plant response rating (wild oat; [6]): 10
Wild oats plant response rating (wild oat; [24]): 0
Wild oats plant response rating (wild oat; [7]): 0
